Data published in patent publication US20160213729A1, “FILIPENDULA VULGARIS EXTRACT AND USES THEREOF” (ABOCA S.P.A. SOCIETA' AGRICOLA, priority 2013, published 2016).

How the values were obtained:
Type in all cases: cell-based, human
[1] = tested on: MSTO211H cells; test: Comet assay, MSTO211H; details: single agent
Description: (§6) After the treatment, the cells were trypsinized and immersed in 1% low-melting agarose (Sigma) in PBS and spread onto microscope slides coated beforehand with 1% agarose (Bio-Rad). The cells were lysed in the lysis solution (2.5 M NaCl, 100 mM EDTA, 10 mM Tris base, 8 g/l NaOH, 1% Triton X-100, 10% DMSO) for 1 hour at room temperature and then run into the running solution (300 mM NaOH, 1 mM EDTA, pH 13.0) for 30 minutes, at 25 V and 250 mA. DNA was balanced with 0.4 M Tris, pH 8.0, and the slides dried with methanol. Propidium iodide-DNA (Sigma) and the figures images were taken by using an Axiovert 200M microscope with 40× magnification and an Axiovision (Zeiss) image acquisition software. At least 300 cells per each slide were recorded.

[2] = tested on: untransformed normal mesothelial cells (HMC); test: Comet assay, HMC; details: single agent
Description: as §6

[3] = tested on: mesothelioma cell lines MPM NCl-H2052; test: Cell vitality (ATPlite) in co-treatment with pemetrexed, NCl-H2052
Description: (§1) Cell lines MSTO211H and NCl-H2052 were used to evaluate the effects of the association of extract of Filipendula vulgaris±anti-tumour drug.
(§2) The assay shown in FIG. 10 was performed using ATPlite™ assay (Perkin Elmer) in accordance with the producer's instructions.
(§3) A solution of water for injectable solutions and ethanol at a concentration of 1:1 was used in the same volumes used for the treatments.
(§4) pemetrexed (Alimta, Lilly) diluted in accordance with the producer's instructions.
(§5) The concentrations of the assayed compound are plotted on the abscissa, whereas the cell vitality expressed in percentage is plotted on the ordinate.

[4] = tested on: mesothelioma cell lines MPM MSTO211H; test: Cell vitality (ATPlite) in co-treatment with pemetrexed, MSTO211H
Description: as §1, §2, §3, §4, §5

[5] = tested on: mesothelial cells (HMC); test: Cell vitality (ATPlite) in co-treatment with pemetrexed, HMC; details: pemetrexed alone
Description: as §2, §3, §4, §5

SMILES | DNA damage / fragmentation [1] | DNA damage / fragmentation [2] | concentration of pemetrexed sufficient to lower the cell vitality in double treatment ([3]; NCl-H2052, double treatment with extract 6 μg/ml) [µM] | cell vitality, single agent ([3]; NCl-H2052, pemetrexed alone) | concentration of pemetrexed sufficient to lower the cell vitality in double treatment ([4]; double treatment with extract 6 μg/ml) [µM] | cell vitality, single agent ([4]; pemetrexed alone) | toxicity for non-tumour cells, single agent [5]
N.N.[Cl][Pt][Cl] [CDDP, cis-diamminedichloroplatinum] | induces DNA fragmentation | induces DNA fragmentation |  |  |  |  | 
Nc1nc2[nH]cc(CCc3ccc(C(=O)N[C@@H](CCC(=O)O)C(=O)O)cc3)c2c(=O)[nH]1 [PMTX, pemetrexed] |  |  | 10 | cytotoxic for the MPM cells | 10 | cytotoxic for the MPM cells | highly toxic for the non-tumour cells
